# Results as given in PubChem BioAssay AID687022 (Broad Institute, 2013).
# Active and inactive are the calls of the source.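 How the source made its calls: active means Fitted curve of melting temperature shift crosses the 1.0 threshold at or below the sample's highest valid tested concentration; inconclusive means Flat fit with activity 30 to 70, or invalid fit; inactive means Opposite direction, flat within 30, or no crossing.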
# Target: Fibroblast growth factor 22 (Homo sapiens) (UniProt Q9HCT0)
# Sequence (Q9HCT0 whole entry, looked up): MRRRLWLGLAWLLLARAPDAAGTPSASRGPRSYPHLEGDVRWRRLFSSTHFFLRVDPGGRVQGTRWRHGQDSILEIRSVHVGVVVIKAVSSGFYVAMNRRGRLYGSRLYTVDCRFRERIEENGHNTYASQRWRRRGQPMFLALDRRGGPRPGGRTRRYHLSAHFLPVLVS
# Experiment: binders of human FGF22 protein, dose response, FGF22 synaptogenesis inhibitor project, biophysical, thermal shift, cherry-pick (AID 687022)
# Conditions: recombinant FGF22 thermal shift, SYPRO orange melting
row,Structure (SMILES),AbsAC1 (concentration giving Tm-shift threshold 1.0)
1,O=S(=O)(Nc1cc(Cl)ccc1-n1cncn1)c1ccc(F)cc1,15.2 µM
2,C[C@@H]1CN([C@@H](C)CO)S(=O)(=O)c2ccc(-c3cccc(C#N)c3)cc2O[C@@H]1CN(C)C(=O)Nc1cc(F)ccc1F,> 38 µM (inactive)
3,Nc1cccc(-c2nc3ccc(C(=O)c4ccccc4)cc3[nH]2)c1,1.15 µM
4,O=S(=O)(ON(c1ccccc1)S(=O)(=O)c1ccccc1)c1ccccc1,14 µM
5,O=C(CCc1c[nH]c2ccccc12)Nc1ccc(Oc2cccnc2)cc1,7.99 µM
6,O=C(NNC(=O)C1CCN(S(=O)(=O)c2ccccc2C(F)(F)F)CC1)c1ccccc1O,10.4 µM
7,O=C(N/N=C/c1c[nH]c2ccccc12)c1cccc(Cl)c1,2.15 µM
8,O=C(Nc1ccc(F)c(Cl)c1)C1CCCN(C2=NS(=O)(=O)c3ccccc32)C1 (centres undefined),> 38 µM (inactive)
9,O=C(CN1C(=O)NC2(CCOc3ccccc32)C1=O)Nc1ccc(Br)cc1F (centres undefined),16.6 µM
10,CO[C@@H](CN(C)S(=O)(=O)c1cccc(Cl)c1)[C@@H](C)CN([C@@H](C)CO)S(=O)(=O)c1cccc(Cl)c1,5.29 µM
11,CN(Cc1c(C(=O)N/N=C/c2ccc(O)cc2)nnn1-c1nonc1N)c1ccccc1,0.867 µM
12,CO[C@@H](CN(C)S(=O)(=O)c1ccc(Cl)cc1)[C@@H](C)CN([C@H](C)CO)S(=O)(=O)c1cccc(Cl)c1,10.7 µM
13,CCN1C(=O)C(CC(=O)Nc2ccc(OC)cc2)N(Cc2ccc3c(c2)OCO3)C1=S (centres undefined),4.05 µM
14,O=C(CC1SC(=O)NC1=O)Nc1ccc(Cl)cc1 (centres undefined),3.11 µM
15,COc1cc2cc(NC(C)=O)cc(NCc3ccccc3)c2cc1OC,8.13 µM
16,O=C(O)c1cccc(NS(=O)(=O)c2ccc(Cl)c(C(=O)Nc3cccc([N+](=O)[O-])c3)c2)c1,11.9 µM
17,O=C(CCc1ccc(O)cc1)c1c(O)cc(O)cc1O,1.74 µM
18,O=C(O)Cc1ccc(NC(=O)c2ccc(Cl)c(Cl)c2)cc1,4.5 µM
19,CSCCC(NS(=O)(=O)c1ccc(Cl)c(Cl)c1)C(=O)O (centres undefined),> 38 µM (inactive)
20,S=c1[nH]c2cc3ccccc3cc2[nH]1,10.7 µM
21,COc1ccccc1NC(=O)Nc1cccc(NC(C)=O)c1,7.52 µM

row,Structure (SMILES),AbsAC1 (concentration giving Tm-shift threshold 1.0)
1,CC(C)(C)c1ccc(C2CC2C(=O)N/N=C\c2ccc[nH]2)cc1 (centres undefined),14.3 µM
2,Nc1nnc(CC(=O)N/N=C/c2cc([N+](=O)[O-])cc(Br)c2O)s1,4.99 µM
3,O=C(NNC(=O)c1ccccc1F)c1ccc(NS(=O)(=O)c2ccc(F)cc2)cc1,18.2 µM
4,CSc1ccc(/C=N/NC(=O)c2ccc3nc[nH]c3c2)cc1,1.58 µM
5,Cc1[nH]c2ccccc2c1/C=N/NC(=O)c1cccc(F)c1,9.79 µM
6,NS(=O)(=O)c1ccc(NC(=O)Nc2cccc(Cl)c2)cc1,16.8 µM
7,COc1ccc(Nc2nc3ccc(OC)cc3s2)cc1,2.95 µM
8,O=C(Cn1cc(COc2ccc(Br)cc2)nn1)c1ccc(O)cc1,7.63 µM
9,O=C(CCNC(=O)c1ccccc1Cl)Nc1nc2ccc(F)cc2s1,9.92 µM
10,O=S(=O)(Nc1cccc(-n2cnnn2)c1)c1ccc(Cl)cc1,27.6 µM
11,C[C@H](CO)N1C[C@H](C)[C@H](CN(C)C(=O)Nc2ccc3c(c2)OCO3)Oc2cc(C3=CCCCC3)ccc2S1(=O)=O,20.3 µM
12,C/C(=N\NC(=O)c1nnn(-c2nonc2N)c1CSc1ccc(C)cc1)c1cccnc1,37.4 µM
13,CCOC(=O)c1c(C)[nH]c(C)c1C(=O)COC(=O)/C=C/c1ccccc1[N+](=O)[O-],23.9 µM
14,COc1ccc(S(=O)(=O)N(NC2=NS(=O)(=O)c3ccccc32)C(=O)C(C)C)cc1,> 38 µM (inactive)
15,COc1ccc2cc(CCNC(=O)c3cc4ccccc4o3)c(=O)[nH]c2c1,11.3 µM
16,COc1ccc(NS(=O)(=O)c2cccc(C(=O)NNC(=O)c3ccccc3O)c2)cc1,10.4 µM
17,Nc1ccc(C(=O)Nc2ccc(OC(F)(F)C(F)F)c(NC(=O)c3ccc(N)cc3)c2)cc1,6.85 µM
18,COc1cc(/C=N/NC(=O)CCn2c3ccccc3c3ccccc32)ccc1O,15.9 µM
19,O=C(C[C@@H]1CC[C@@H]2[C@H](COC[C@@H](O)CN2S(=O)(=O)c2cccc(F)c2)O1)Nc1ccc(-c2ccccc2)cc1,22.3 µM
20,CN1C(=O)c2cc(NC(=O)c3cccc(F)c3)ccc2OC[C@H]2O[C@@H](CC(=O)NCC3CCCCC3)CC[C@H]21,22.3 µM
21,O=C(N/N=C/c1c[nH]c2ccccc12)C1CC1c1ccccc1 (centres undefined),14 µM

row,Structure (SMILES),AbsAC1 (concentration giving Tm-shift threshold 1.0)
1,COc1ccc(/C(=N\Nc2ccccc2C(=O)O)c2ccccc2)cc1,> 19.5 µM (inactive)
2,O=C(NCC1CC1)c1onc(CSc2ccc(F)cc2)c1C(=O)NCC1CC1,2.58 µM
3,Cc1cccc(NC(=O)Nc2ccc(S(N)(=O)=O)cc2)c1,4.36 µM
4,O=C(Nc1ccc(F)cc1)N[C@@H]1CC[C@H](CCn2cc(-c3ccccc3F)nn2)O[C@H]1CO,10.3 µM
5,COc1cc(/C=N/NC(=O)c2cc3ccccc3[nH]2)ccc1O,1.49 µM
6,O=C(N/N=C/c1ccc(O)cc1)c1cccc(N/N=C/c2ccc(O)cc2)c1,5.77 µM
7,O=[N+]([O-])c1ccc2nc(-c3ccccc3)[nH]c2c1,3.88 µM
8,Cc1ccccc1-n1c(O)c(/C=N/NC(=O)c2ccccc2O)c(=O)[nH]c1=S,3.51 µM
9,CCc1nnc(NS(=O)(=O)c2ccc(NC(=S)NC(=O)/C=C/c3ccc([N+](=O)[O-])cc3)cc2)s1,4.73 µM
10,COc1ccc(NC(=O)CN(C)C(=O)c2cn(-c3ccccc3)nc2-c2cccnc2)cc1,> 38 µM (inactive)
11,CCc1nnc(NS(=O)(=O)c2ccc(NC(=O)c3ccc(Br)cc3)cc2)s1,5.81 µM
12,O=[N+]([O-])c1ccc(S(=O)(=O)Nc2nnc(C(F)(F)F)s2)cc1,4.67 µM
13,O=C(CNC(=O)c1cccc(Br)c1)N/N=C/c1cc(Br)cc(Br)c1O,> 38 µM (inactive)
14,COc1ccc(S(=O)(=O)Nc2ccc(NC(C)=O)cc2)cc1Cl,26.6 µM
15,COc1cccc(NC(=O)CN(C)C(=O)c2cn(-c3ccccc3)nc2-c2cccs2)c1,6.16 µM
16,C[C@@H]1CN([C@H](C)CO)S(=O)(=O)c2ccc(-c3ccc(F)cc3)cc2O[C@@H]1CN(C)C(=O)Nc1ccccc1F,22.1 µM
17,COc1ccc(N2C(=O)C(CC(=O)Nc3ccccc3)N(Cc3ccc4c(c3)OCO4)C2=O)cc1 (centres undefined),6.04 µM
18,CCC(C)n1c(O)c(C(c2ccccn2)c2c(O)n(C(C)CC)c(=S)[nH]c2=O)c(=O)[nH]c1=S (centres undefined),20.7 µM
19,CN(NC1OC(=O)c2ccccc21)c1ncc(C(F)(F)F)cc1Cl (centres undefined),29.3 µM
20,COc1ccc(N2C(=O)C(CC(=O)Nc3ccccc3)N(Cc3ccccn3)C2=S)cc1 (centres undefined),9.43 µM
21,COc1cccc(NC(=O)N(C)C[C@H]2Oc3cc(-c4ccccc4F)ccc3S(=O)(=O)N([C@@H](C)CO)C[C@H]2C)c1,5.23 µM

row,Structure (SMILES),AbsAC1 (concentration giving Tm-shift threshold 1.0)
1,CCCC(=O)c1ccc(OCc2cn(CC(=O)c3ccc(O)cc3)nn2)cc1,8.45 µM
2,COc1ccc(NS(=O)(=O)c2ccc(Cl)c(N)c2)cc1Br,4.09 µM
3,COc1ccccc1NC(=O)N[C@@H]1CC[C@@H](CCn2cc(-c3ccccc3OC)nn2)O[C@@H]1CO,4.76 µM
4,O=C(Nc1nc(=O)n(C(=O)C2CC2)s1)c1ccccc1,20.7 µM
5,N#Cc1c(-c2ccccc2)nc(-c2ccncc2)[nH]c1=O,30.3 µM
6,O=C(N/N=C/c1ccc[nH]1)c1cc2ccccc2cc1O,3.23 µM
7,COc1ccccc1NC(=O)N[C@H]1CC[C@H](CCn2cc(-c3ccccc3OC)nn2)O[C@H]1CO,4.01 µM
8,C[C@@H]1CN([C@@H](C)CO)S(=O)(=O)c2ccc(-c3ccncc3)cc2O[C@@H]1CN(C)C(=O)Nc1ccc(C(F)(F)F)cc1,1.96 µM
9,O=C(N/N=C/c1ccc(C(F)(F)F)cc1)c1ccc(O)cc1,2.48 µM
10,O=C(NN1C(=O)CSC1=S)C(=O)NN1C(=O)CSC1=S,5.24 µM
11,O=C(CN1C(=O)NC(Cc2c[nH]c3ccccc23)C1=O)Nc1ccc(Br)cc1F (centres undefined),4.93 µM
12,O=S(=O)(O)c1cccc2cccc(Nc3ccccc3)c12,9.29 µM
13,O=c1ccc2nc3ccccc3sc-2c1,8.27 µM
14,CCOC(=O)C(c1c(O)c2ccccc2oc1=O)c1c(O)c2ccccc2oc1=O,> 5 µM (inactive)
15,Cc1noc(C)c1NC(=O)N[C@@H]1C=C[C@H](CC(=O)Nc2ccc(-c3ccccc3)cc2)O[C@@H]1CO,5.28 µM
16,CC(C)(C)[S@@](=O)N1Cc2cc(C(=O)NCc3ccccc3F)nc(-c3cccc(-c4ccncc4)c3)c2[C@H]1CCO,> 38 µM (inactive)
17,O=C(CCc1ccccc1)c1c(O)cc(O)cc1O,> 5 µM (inactive)
18,CCCOC(=O)c1ccc(Oc2cn[nH]c2-c2ccc(O)cc2O)cc1,18.6 µM
19,Cc1cc(C(=O)N/N=C/c2c[nH]c3ccccc23)cs1,2.23 µM
20,O=C(N/N=C/c1ccc(Cl)c(Cl)c1)c1ccc2nc[nH]c2c1,2.35 µM
21,Cc1onc(-c2ccccc2)c1C(=O)Nc1ncc([N+](=O)[O-])s1,17.1 µM
